The values below come from patent US9988343B2, “Inhibitors of histone deacetylase” (Dana-Farber Cancer Institute, Inc., priority 2013, dated 2018).

The target in one experiment is T1, HDAC6 (Homo sapiens, UniProt Q9UBN7).
T1 sequence (Q9UBN7 1-1215): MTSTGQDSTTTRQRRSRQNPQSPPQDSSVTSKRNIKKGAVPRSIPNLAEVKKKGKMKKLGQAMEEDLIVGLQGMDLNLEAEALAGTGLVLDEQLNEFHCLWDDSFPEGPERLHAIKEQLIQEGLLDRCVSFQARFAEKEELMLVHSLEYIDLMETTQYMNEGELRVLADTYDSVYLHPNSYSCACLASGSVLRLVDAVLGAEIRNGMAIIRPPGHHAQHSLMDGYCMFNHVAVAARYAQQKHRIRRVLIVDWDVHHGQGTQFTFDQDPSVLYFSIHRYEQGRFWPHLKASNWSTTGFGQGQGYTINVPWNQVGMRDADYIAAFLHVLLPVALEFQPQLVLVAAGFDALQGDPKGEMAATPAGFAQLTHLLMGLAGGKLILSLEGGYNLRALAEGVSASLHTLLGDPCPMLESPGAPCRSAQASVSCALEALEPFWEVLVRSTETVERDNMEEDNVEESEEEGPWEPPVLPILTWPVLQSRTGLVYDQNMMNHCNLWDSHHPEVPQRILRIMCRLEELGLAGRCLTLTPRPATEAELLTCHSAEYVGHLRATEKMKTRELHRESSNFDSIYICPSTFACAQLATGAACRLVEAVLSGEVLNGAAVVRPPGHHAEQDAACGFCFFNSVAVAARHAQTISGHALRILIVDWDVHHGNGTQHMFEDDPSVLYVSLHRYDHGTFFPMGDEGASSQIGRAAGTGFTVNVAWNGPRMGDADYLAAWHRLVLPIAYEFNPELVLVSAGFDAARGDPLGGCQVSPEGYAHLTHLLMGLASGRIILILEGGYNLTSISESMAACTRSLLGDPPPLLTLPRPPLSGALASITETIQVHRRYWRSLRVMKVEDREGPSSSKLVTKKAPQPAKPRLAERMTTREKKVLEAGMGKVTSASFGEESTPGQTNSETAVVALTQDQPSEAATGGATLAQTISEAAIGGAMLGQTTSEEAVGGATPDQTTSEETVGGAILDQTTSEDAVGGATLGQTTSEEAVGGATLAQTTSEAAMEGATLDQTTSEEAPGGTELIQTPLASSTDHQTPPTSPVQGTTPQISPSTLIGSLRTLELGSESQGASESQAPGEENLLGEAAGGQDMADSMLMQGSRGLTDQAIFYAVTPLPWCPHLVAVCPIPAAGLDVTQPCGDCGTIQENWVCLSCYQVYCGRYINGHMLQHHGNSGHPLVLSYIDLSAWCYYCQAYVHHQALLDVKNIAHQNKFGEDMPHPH
As to the kind of experiment: HDAC6 inhibitory activity (IC50). Type of experiment: biochemical. Particulars: Table 2; read-out: HDAC6.

For another experiment, the target named is HDAC3 (Homo sapiens, UniProt O15379). As to the kind of experiment: HDAC3 inhibitory activity (IC50). The class given is biochemical. Particulars: Table 2; read-out: HDAC3.
HDAC3, sequence (O15379 whole entry): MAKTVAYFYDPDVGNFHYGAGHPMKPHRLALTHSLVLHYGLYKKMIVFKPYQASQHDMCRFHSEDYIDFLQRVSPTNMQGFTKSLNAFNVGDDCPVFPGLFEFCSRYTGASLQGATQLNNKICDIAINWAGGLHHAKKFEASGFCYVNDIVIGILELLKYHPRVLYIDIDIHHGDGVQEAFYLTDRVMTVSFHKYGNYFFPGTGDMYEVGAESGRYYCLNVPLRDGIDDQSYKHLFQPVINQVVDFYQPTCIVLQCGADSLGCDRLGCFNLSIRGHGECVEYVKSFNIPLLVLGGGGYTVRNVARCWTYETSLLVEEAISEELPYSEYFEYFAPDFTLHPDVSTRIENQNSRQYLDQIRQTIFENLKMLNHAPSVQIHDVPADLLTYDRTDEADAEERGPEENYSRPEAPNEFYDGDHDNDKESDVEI
HDAC3, sequence (Q9Y618 395-489 partner limits assumed): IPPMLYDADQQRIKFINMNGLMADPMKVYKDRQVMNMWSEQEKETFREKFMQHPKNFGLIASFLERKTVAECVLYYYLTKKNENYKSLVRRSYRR
The next experiment deals with HDAC1 (Homo sapiens, UniProt Q13547). Nature of the experiment: HDAC1 inhibitory activity (IC50). The class given is biochemical. Conditions: Table 2; read-out: HDAC1.
HDAC1, sequence (Q13547 whole entry): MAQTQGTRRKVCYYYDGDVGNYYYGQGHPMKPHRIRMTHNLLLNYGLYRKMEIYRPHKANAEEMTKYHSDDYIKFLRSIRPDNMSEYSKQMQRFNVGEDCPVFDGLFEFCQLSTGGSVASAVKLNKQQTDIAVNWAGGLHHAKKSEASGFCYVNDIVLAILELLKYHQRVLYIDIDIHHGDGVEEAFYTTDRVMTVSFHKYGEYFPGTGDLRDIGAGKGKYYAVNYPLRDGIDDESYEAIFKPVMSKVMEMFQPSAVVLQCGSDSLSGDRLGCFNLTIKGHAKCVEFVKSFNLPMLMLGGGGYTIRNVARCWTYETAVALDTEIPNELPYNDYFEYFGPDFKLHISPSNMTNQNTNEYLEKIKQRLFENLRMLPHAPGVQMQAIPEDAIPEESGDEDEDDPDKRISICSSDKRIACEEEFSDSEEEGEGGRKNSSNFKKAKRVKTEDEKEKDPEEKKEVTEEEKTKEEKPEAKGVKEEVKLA
Another experiment has as its target HDAC2 (Homo sapiens, UniProt Q92769). As to the kind of experiment: HDAC2 inhibitory activity (IC50). Type of experiment: biochemical. Conditions: Table 2; read-out: HDAC2.
In a further experiment the test system is pSTAT3 (Tyr705). Nature of the experiment: Immunoblot of STAT3 phosphorylation in MM cells. The class given is cell-based, human. The method, then: MM cells were harvested and lysed using sodium dodecyl sulfate-polyacrylamide gel electrophoresis (SDS-PAGE) sample buffer containing 60 mM Tris-HCl, pH 6.8, 2% SDS, 10% glycerol, 0.005% bromophenol blue, 5 mM ethylenediaminetetraacetic acid, 5 mM NaF, 2 mM […], 1 mM phenylmethylsulfonyl fluoride (PMSF), 5 μg/mL leupeptin, and 5 μg/mL aprotinin; and then heated at 100° C. for 5 min. After the determination of protein concentration using DC protein assay (Bio-Rad, Hercules, Calif.), β-mercaptoethanol (β-ME) was added to the whole-cell lysates to a 2% final β-ME concentration. The whole-cell lysates were subjected to SDS-PAGE, transferred to nitrocellulose membranes (Bio-Rad, Hercules, Calif.) or polyvinylidene fluoride membranes (Millipore, Billerica, Mass.), and immunoblotted with anti-histone H3, -HDAC1, -HDAC2, -HDAC3, -Acetyl-histone H2A (Lysine 5) (Ac-H2AK5), -Acetyl-histone H2B (lysine 5) (Ac-H2 BK5), -Acetyl-histone H3 (lysine 9) (Ac-H3K9), -Acetyl-histone H4 (lysine 8) (Ac-H4K8), -glyceraldehyde-3-phosphate dehydrogenase (GAPDH), -poly (ADP-ribose) polymerase (PARP), -caspase-3, -caspase-8, -caspase-9, -Signal transducers and activators of transcription 3 (STAT3), -phospho-STAT3 (pSTAT3) (tyrosine 705), -pSTAT3 (serine 727), -p21, -Janus kinase 2 (JAK2), -acetylated-Lysine (Ac-K), and anti-phosphorylated-tyrosine antibodies (Abs; Cell Signaling Technology, Beverly, Mass.).
MM.1S, U266, and INA6 cells were cultured with DMSO control or LBH589 (50 and 100 nM) for 8 h.
MM.1S cells pretreated with or without 50 nM LBH589 for 8 hours were then treated with IL-6 (10 ng/mL) or BMSC culture supernatants (#1 and #2) for 15 minutes. Whole cell lysates were subjected to immunoblotting with anti-pSTAT3 (Tyr705) and STAT3 Abs.
In addition, INA-6 cells were cultured with DMSO control, LBH589 (50 nM), TSA (1 μM) or SAHA (2 μM) for 8 hours. Whole cell lysates were subjected to immunoblotting with anti-pSTAT3 (Tyr705), STAT3, and GAPDH Abs.
Whole cell lysates were subjected to immunoblotting with anti-pSTAT3 (Tyr705), -STAT3, -pERK1/2 (Thr202/204), and -ERK1/2 Abs (FIG. 6G).
See, e.g., Hideshima et al. Blood. 2006, 107:4053-4062. Since bortezomib upregulates activated STAT3 in head and neck squamous cell carcinoma (see, e.g., Li et al. Mol Cancer Ther 2009. 8:2211-2220), experiments were conducted to test whether bortezomib enhances p-STAT3 in MM cells. RPMI8226 cells were infected with Luc, HDAC1 (sh1), HDAC2 (sh1) or HDAC3 (sh1) shRNAs and then treated with or without bortezomib (5 nM) for 6 hours. Whole cell lysates were subjected to immunoblotting with anti-STAT3, -pSTAT3 (Tyr705), -pERK1/2 (Thr202/204) and -ERK1/2 Abs.

A further experiment concerns MM.1S cells. As to the kind of experiment: Immunoblot of histone and α-tubulin acetylation in MM.1S cells. The class given is cell-based, human. Conditions: 12 h, Compound 10 10 and 20 μM.
The mark [1] stands for this setting: INA-6 cells, 8 hours, TSA 1 μM, SAHA 2 μM (FIG. 4C).

Each structure is given as a SMILES string. pIC50: −log10 of the molar value.

HDAC2, sequence (Q92769 whole entry): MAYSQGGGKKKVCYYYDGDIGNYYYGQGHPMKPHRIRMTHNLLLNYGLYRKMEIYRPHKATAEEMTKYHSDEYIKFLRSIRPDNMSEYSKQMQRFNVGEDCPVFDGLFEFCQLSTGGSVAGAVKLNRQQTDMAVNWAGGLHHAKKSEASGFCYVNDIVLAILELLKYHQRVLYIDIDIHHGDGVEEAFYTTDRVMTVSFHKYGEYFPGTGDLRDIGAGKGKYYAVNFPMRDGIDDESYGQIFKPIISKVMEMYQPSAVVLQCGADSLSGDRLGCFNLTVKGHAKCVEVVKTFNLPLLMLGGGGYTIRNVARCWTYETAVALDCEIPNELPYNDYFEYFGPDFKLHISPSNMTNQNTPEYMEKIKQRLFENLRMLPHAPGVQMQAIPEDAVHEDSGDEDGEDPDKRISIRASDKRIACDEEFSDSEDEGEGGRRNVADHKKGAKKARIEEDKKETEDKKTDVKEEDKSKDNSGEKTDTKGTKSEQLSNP
Protocol for HDAC1: (§1) HDAC inhibitor compounds designed and synthesized in accordance with the present invention were tested for their inhibitor activity against several different HDAC isoforms.
Protocol for HDAC2: as §1
Protocol for HDAC3: as §1
Protocol for HDAC6: as §1

As to `Nc1ccccc1NC(=O)c1cccnc1` [Compound 1], on HDAC6, the pIC50 was 4.13.
Take `Nc1ccccc1NC(=O)c1ccncc1` [Compound 2]: the pIC50 at HDAC3 was 6.43; on HDAC6 it was less than 4.00; at HDAC1, 5.55; at HDAC2, 5.63.
For `Nc1ccccc1NC(=O)c1ccccn1` [Compound 3], the pIC50 was 6.46 on HDAC3, less than 4.00 on HDAC6 and 5.63 at HDAC2.
Consider `O=C(Nc1ccccc1O)c1cccnc1` [Compound 5], for which the pIC50 at HDAC3 is 5.48; at HDAC6, less than 4.00; on HDAC1, 4.98; at HDAC2, 5.44.
Regarding `O=C(Nc1ccccc1O)c1ccncc1` [Compound 6], the pIC50 at HDAC3 is 5.70; at HDAC6 it was less than 4.00; at HDAC1, 5.24; on HDAC2, 5.72.
For `O=C(Nc1ccccc1O)c1ccccn1` [Compound 7], the pIC50 on HDAC3 is 5.44; on HDAC6, less than 4.00; on HDAC1 it was 4.91; at HDAC2, 5.39.
As to `Nc1ccccc1NC(=O)c1cnc(Nc2ccccc2)nc1` [Compound 8], the pIC50 at HDAC3 is 6.77; on HDAC6 it was less than 4.00; at HDAC1 it was 6.13; on HDAC2, 5.92.
As to `Nc1ccccc1NC(=O)c1ccc(Cl)nc1` [Compound 9], the pIC50 at HDAC3 was 6.55; on HDAC6, less than 4.00; at HDAC1, 5.48; at HDAC2 it was 5.59.
For `CC(=O)Nc1ccc(C(=O)Nc2cc(-c3ccccc3)ccc2N)cc1` [Compound 11], the pIC50 at HDAC3 is 6.07; on HDAC6, less than 4.00; at HDAC1 it was greater than 8.00; at HDAC2 it was 7.22.
For the molecule `CC(=O)Nc1ccc(C(=O)Nc2ccc(F)cc2N)cc1` [Compound 12], the pIC50 at HDAC3 was 7.15; on HDAC6, less than 4.00; on HDAC1, 5.91; on HDAC2, 6.12.
For the molecule `Nc1cc(F)ccc1NC(=O)c1cccnc1` [Compound 13], the pIC50 is 5.71 at HDAC3, less than 4.00 at HDAC6, 4.57 on HDAC1 and 4.87 at HDAC2.
As for `Nc1cc(F)ccc1NC(=O)c1cnccn1` [Compound 14], the pIC50 was 6.53 on HDAC3, less than 4.00 on HDAC6, 5.38 on HDAC1 and 5.64 at HDAC2.
For the molecule `O=C(Nc1ccc(F)cc1O)c1cccnc1` [Compound 15], the pIC50 was 5.63 at HDAC3, less than 4.00 on HDAC6, 4.86 on HDAC1 and 5.26 at HDAC2.
For the molecule `Cc1ccc(C(=O)Nc2ccccc2N)cn1` [Compound 17], the pIC50 on HDAC3 was 6.67; at HDAC6, less than 4.00; at HDAC1, 5.86; at HDAC2, 5.86.
`Cc1[nH]c2ccccc2c1CCNCc1ccc(/C=C/C(=O)NO)cc1` [LBH589, reference compound]: in the experiment on pSTAT3 (Tyr705) (MM.1S, 50 nM pretreatment 8 hours, IL-6 10 ng/mL or supernatants 15 minutes (FIG. 4B)), the “P-STAT3 upregulated by IL-6 or BMSC culture supernatants” value is given as “blocked”. The p-STAT3 entry with pSTAT3 (Tyr705) (MM.1S, U266, INA-6 cells, 50 and 100 nM, 8 h (FIG. 4A)) is given as “significantly inhibited”. In addition, in the experiment on MM.1S cells (LBH589 50 and 100 nM (FIG. 6F left)), the histone acetylation entry is “significantly triggered both histone and α-tubulin acetylation”. The “α-tubulin acetylation (biomarker of HDAC6 inhibition)” value with MM.1S cells (LBH589 50 and 100 nM (FIG. 6F right)) is “significantly triggered both histone and α-tubulin acetylation”.
In the case of `O=C(CCCCCCC(=O)Nc1ccccc1)NO` [SAHA, suberoylanilide hydroxamic acid], the p-STAT3 entry with pSTAT3 (Tyr705) (setting [1]) is on record as “downregulated p-STAT3”.
With `CC(/C=C/C(=O)NO)=C\[C@@H](C)C(=O)c1ccc(N(C)C)cc1` [TSA], in the experiment with pSTAT3 (Tyr705) (setting [1]), the p-STAT3 result is given as “downregulated p-STAT3”.
